Measured values: US11179391B2, “Compound with kinase inhibitory activity and preparation method and use thereof” (priority 2017, dated 2021)

Legend:
Type in all cases: biochemical
CDK4/CycD3 = CDK4/CycD3 (Homo sapiens, UniProt P11802); assay: Determination of CDK activity (Caliper mobility shift, FAM-P8 peptide): CDK4; details: CDK4/CycD3; read-out: CDK4 enzymatic inhibitory activity (IC50)
Procedure: (§1) In vitro, CDK (CDK4, CDK6, CDK1, CDK2, CDK7, and CDK9) kinase activity was tested by the following method.
(§2) CDK and raw materials used here: CDK4/CycD3 (Carna, Cat. No 04-105, Lot. No 10CBS-0429 C, GST-CDK4(1-303end)/GST-CycD3(1-292end)); CDK6/cycD3 (Carna, Cat. No 04-107, Lot. No 09CBS-0622K, GST-CDK6(1-326(end))); CDK1/CyclinB (Millipore, Cat. 14-450k, Lot. No 25729U, His-CDK1+GST-cyclinB); CDK2/CycA2 (Carna, Cat. No 04-103, Lot. No 06CBS-3024, GST-CDK2 (1-298(end))); CDK7/CyclinH/MAT1 (Millipore, Cat. No 14-476M, Lot. No WAB0365-A, His-CDK7+GST-MAT1+cyclinH); CDK9/cyclinTl (Millipore, Cat. No 14-685K, Lot. No. 2476163-A, His-CDK9+cyclinTl); Peptide FAM-P8 (GL Biochem, Cat. No. 112396, Lot. No. P100804-XZ112396); ATP (Sigma, Cat. No. A7699-1G, CAS No. 987-65-5); DMSO (Sigma, Cat. No. D2650, Lot. No. 474382); EDTA (Sigma, Cat. No. E5134, CAS No. 60-00-4); 96-well plate (Corning, Cat. No. 3365, Lot. No. 22008026); 384-well plate (Corning, Cat. No. 3573, Lot. No. 12608008); Staurosporine (Sigma, Cat. No. S4400-1MG, Lot. No. 046K4080).
(§3) 1. Prepared 1× Kinase Buffer and Stop Buffer for the Test
2) 1× Kinase Base Buffer (CDK4).
(§4) 1) Diluted the compound to 50 times of the maximum concentration with 100% DMSO. For example, if the desired maximum inhibitory concentration is 10 μM, then a DMSO solution of 500 μM concentration is required.
(§5) 2) Transferred the compound to a 96-well plate and serially diluted the compound from a 100% DMSO solution at a ratio of 30 μm to 60 μm for a total of 10 concentrations gradients. 3) Transferred 100 μm of 100% DMSO to two empty wells as a no compound control and a no enzyme control.
(§6) 4) Prepared intermediate plate and transferred the compound of 10 μm concentration from the original plate to the intermediate plate, and then 90 μm of 1× kinase buffer was added and mixed by shaking for 10 min.
(§7) 4) Preparing intermediate plate and transferred the compound of […] concentration from the original plate to the intermediate plate, and then 90 μm of 1× kinase buffer was added and mixed by shaking for 10 min.
(§8) 1) Transferred 5 μm of each compound from the 96-well intermediate plate to a 384-well plate. For example, A1 of the 96-well plate was transferred to A1 and A2 of the 384-well plate. A2 of the 96-well plate was transferred to A3 and A4 of the 384-well plate, and so on.
(§9) 1) Prepared a 2.5× enzyme solution: added kinase into 1× kinase base buffer.
(§10) 2) Prepared a 2.5× peptide solution: added FAM-labeled peptide and ATP into the 1× kinase base buffer.
(§11) 3) Transferred the 2.5× enzyme solution to the assay plate: Assay plate already contained 5 μm of 10% DMSO and transferred 10 μm of 2.5× enzyme solution to each well.
(§12) 4) Incubated at room temperature for 10 min.
(§13) 5) Transferred the 2.5× peptide solution to the assay plate: added 10 μm of 2.5× peptide solution to each well of the 384-well assay plate.
(§14) 6) Kinase reaction and termination: incubated at 28° C. for a specified period and added 25 μm of stop buffer to stop the reaction.
(§15) 5. Caliper Reading: Collect Data on Caliper.
(§16) 1) Copied conversion data from Caliper program and Converted conversion values to inhibition values: Inhibition rate (%)=(1−OD value of the compound-OD value of the control well)/(OD value of the control empty-OD value of the control well)*100%.
(§17) 2) Fitted the data in XLFit excel add-in version 4.3.1 to give the corresponding IC50 values.

CDK6/cycD3 = CDK6/cycD3 (Homo sapiens, UniProt Q00534); assay: Determination of CDK activity (Caliper mobility shift, FAM-P8 peptide): CDK6; details: CDK6/cycD3; read-out: CDK6 enzymatic inhibitory activity (IC50)
Sequence of CDK6/cycD3 (Q00534 whole entry): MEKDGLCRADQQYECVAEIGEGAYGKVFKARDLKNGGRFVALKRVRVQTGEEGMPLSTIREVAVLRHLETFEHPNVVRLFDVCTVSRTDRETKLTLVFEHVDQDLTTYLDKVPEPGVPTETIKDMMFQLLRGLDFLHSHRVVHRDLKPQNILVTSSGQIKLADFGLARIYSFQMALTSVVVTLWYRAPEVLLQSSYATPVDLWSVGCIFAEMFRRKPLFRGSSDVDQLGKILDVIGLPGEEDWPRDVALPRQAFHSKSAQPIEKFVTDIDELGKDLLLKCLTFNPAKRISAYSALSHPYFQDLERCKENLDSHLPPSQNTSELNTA
Sequence of CDK6/cycD3 (P30281 whole entry partner): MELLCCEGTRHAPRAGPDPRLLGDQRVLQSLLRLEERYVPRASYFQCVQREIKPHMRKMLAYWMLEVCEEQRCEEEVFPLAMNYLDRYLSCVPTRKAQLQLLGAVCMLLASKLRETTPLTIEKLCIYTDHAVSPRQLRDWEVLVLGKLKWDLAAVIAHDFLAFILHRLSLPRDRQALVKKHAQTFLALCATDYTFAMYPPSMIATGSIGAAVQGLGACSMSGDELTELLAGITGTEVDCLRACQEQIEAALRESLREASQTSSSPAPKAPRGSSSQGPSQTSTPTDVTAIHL
Procedure: as §1, §2, §3
(§18) 1) 1× Kinase Base Buffer (CDK1, 2, and 6).
as §4, §5, §6, §7, §8, §9, §10, §11, §12, §13, §14, §15, §16, §17

CDK1/CyclinB = CDK1/CyclinB (Homo sapiens, UniProt P06493); assay: Determination of CDK activity (Caliper mobility shift, FAM-P8 peptide): CDK1; details: CDK1/CyclinB; read-out: CDK1 enzymatic inhibitory activity (IC50)
Sequence of CDK1/CyclinB (P06493 whole entry): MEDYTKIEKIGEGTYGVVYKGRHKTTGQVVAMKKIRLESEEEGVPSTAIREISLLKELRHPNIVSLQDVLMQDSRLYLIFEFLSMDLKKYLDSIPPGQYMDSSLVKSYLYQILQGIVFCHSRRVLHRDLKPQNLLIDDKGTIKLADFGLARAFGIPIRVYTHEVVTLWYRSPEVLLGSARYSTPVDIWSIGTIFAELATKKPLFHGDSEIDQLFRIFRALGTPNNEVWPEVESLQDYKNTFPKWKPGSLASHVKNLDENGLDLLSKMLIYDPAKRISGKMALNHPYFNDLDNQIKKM
Sequence of CDK1/CyclinB (P14635 whole entry partner): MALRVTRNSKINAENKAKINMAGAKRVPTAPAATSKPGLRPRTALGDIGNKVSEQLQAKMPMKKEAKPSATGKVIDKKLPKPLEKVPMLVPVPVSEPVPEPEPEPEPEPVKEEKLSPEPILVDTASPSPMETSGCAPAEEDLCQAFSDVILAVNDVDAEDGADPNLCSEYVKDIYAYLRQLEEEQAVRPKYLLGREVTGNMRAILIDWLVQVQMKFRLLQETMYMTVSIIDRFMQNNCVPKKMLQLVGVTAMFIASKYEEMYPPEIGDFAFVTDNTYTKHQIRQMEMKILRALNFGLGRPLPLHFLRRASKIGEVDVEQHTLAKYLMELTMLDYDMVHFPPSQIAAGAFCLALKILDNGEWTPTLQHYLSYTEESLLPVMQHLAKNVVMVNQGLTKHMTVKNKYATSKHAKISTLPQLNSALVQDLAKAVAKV
Procedure: as §1, §3, §18, §4, §5
(§19) 1) Transferred 5 μm of each compound from the 96-well intermediate plate to a 384-well plate. […] A2 of the 96-well plate was transferred to A3 and A4 of the 384-well plate, and so on.
as §9, §10, §11, §12, §13, §14, §15, §16, §17

CDK2/CycA2 = CDK2/CycA2 (Homo sapiens, UniProt P24941); assay: Determination of CDK activity (Caliper mobility shift, FAM-P8 peptide): CDK2; details: CDK2/CycA2; read-out: CDK2 enzymatic inhibitory activity (IC50)
Procedure: as §1, §3, §18, §4, §5, §19, §9, §10, §11, §12, §13, §14, §15, §16, §17

CDK7/CyclinH/MAT1 = CDK7/CyclinH/MAT1 (Homo sapiens, UniProt P50613); assay: Determination of CDK activity (Caliper mobility shift, FAM-P8 peptide): CDK7; details: CDK7/CyclinH/MAT1; read-out: CDK7 enzymatic inhibitory activity (IC50)
Sequence of CDK7/CyclinH/MAT1 (P50613 whole entry): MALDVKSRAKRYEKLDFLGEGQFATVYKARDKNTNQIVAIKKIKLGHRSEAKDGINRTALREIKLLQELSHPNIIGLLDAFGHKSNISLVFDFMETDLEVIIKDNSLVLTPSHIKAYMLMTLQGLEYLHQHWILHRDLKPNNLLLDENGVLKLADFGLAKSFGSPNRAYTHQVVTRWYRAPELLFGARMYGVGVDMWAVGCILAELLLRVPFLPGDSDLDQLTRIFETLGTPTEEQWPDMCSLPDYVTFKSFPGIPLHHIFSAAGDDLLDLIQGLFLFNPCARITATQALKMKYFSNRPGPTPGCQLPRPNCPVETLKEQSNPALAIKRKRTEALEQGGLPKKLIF
Sequence of CDK7/CyclinH/MAT1 (P51946 whole entry partner): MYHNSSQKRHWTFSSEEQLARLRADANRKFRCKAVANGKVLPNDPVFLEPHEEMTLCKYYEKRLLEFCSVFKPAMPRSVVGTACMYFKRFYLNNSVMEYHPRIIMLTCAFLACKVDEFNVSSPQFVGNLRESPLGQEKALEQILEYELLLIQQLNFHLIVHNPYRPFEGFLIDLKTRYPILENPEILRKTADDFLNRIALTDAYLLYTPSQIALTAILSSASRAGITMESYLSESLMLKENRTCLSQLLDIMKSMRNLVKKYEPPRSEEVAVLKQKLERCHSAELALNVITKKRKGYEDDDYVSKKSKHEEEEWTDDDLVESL
Sequence of CDK7/CyclinH/MAT1 (P51948 whole entry partner): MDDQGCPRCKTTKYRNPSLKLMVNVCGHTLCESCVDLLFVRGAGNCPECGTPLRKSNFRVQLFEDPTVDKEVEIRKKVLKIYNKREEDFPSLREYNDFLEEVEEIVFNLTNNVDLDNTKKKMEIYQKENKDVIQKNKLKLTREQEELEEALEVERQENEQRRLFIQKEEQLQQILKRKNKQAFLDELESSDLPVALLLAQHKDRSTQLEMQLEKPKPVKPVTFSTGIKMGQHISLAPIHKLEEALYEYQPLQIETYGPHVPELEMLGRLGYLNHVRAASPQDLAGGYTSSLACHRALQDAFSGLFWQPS
Procedure: as §1, §2, §3
(§20) 3) 1× Kinase Base Buffer (CDK7 and 9).
as §4, §5, §6, §7, §8, §9, §10, §11, §12, §13, §14, §15, §16, §17

CDK9/cyclinTl = CDK9/cyclinTl (Homo sapiens, UniProt P50750); assay: Determination of CDK activity (Caliper mobility shift, FAM-P8 peptide): CDK9; details: CDK9/cyclinTl; read-out: CDK9 enzymatic inhibitory activity (IC50)
Sequence of CDK9/cyclinTl (P50750 whole entry): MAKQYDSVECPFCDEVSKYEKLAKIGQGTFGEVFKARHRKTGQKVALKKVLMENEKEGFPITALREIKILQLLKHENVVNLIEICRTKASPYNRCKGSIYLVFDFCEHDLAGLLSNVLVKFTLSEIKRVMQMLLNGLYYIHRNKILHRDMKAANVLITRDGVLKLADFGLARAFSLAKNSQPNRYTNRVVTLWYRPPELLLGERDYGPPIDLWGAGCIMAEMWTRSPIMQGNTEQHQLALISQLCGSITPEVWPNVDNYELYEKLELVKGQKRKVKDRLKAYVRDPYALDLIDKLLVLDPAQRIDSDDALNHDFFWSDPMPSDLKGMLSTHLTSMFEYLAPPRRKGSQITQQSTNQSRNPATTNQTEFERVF
Sequence of CDK9/cyclinTl (O60563 whole entry partner): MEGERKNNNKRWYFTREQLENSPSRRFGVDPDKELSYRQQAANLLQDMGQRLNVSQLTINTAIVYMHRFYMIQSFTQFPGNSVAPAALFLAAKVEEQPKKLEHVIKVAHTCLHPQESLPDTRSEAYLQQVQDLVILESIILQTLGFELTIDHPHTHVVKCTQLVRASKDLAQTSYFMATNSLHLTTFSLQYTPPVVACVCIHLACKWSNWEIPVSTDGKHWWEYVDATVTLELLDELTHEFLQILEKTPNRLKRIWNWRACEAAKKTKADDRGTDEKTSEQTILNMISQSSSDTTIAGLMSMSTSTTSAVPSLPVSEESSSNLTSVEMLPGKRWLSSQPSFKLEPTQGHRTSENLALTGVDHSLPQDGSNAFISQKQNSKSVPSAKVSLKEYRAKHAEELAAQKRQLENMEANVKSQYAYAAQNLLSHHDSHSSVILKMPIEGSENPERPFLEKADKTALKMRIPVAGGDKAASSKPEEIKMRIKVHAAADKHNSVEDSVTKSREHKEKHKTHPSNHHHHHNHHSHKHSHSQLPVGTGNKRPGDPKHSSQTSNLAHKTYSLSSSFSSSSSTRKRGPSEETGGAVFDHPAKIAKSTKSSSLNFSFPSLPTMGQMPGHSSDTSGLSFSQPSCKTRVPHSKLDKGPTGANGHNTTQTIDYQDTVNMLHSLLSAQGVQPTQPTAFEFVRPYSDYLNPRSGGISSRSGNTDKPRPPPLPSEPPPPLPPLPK
Procedure: as §1, §3, §20, §4, §5, §19, §9, §10, §11, §12, §13, §14, §15, §16, §17

Sequence of CDK4/CycD3 (P11802 whole entry): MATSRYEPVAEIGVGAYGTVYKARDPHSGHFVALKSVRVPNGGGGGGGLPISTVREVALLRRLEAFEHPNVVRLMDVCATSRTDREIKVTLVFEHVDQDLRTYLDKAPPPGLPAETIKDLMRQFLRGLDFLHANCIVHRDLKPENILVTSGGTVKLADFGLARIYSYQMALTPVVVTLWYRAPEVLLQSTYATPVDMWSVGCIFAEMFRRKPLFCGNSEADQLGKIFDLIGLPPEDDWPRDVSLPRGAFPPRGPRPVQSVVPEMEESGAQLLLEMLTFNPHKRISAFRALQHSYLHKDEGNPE
Sequence of CDK4/CycD3 (P30281 whole entry partner): as the sequence (P30281 whole entry partner) above

Structure (SMILES) | IC50 (CDK4/CycD3) [µM] | IC50 (CDK6/cycD3) [µM] | IC50 (CDK1/CyclinB) [µM] | IC50 (CDK2/CycA2) [µM] | IC50 (CDK7/CyclinH/MAT1) [µM] | IC50 (CDK9/cyclinTl) [µM]
CCN1CCC(C(O)c2ccc(Nc3ncc(F)c(-c4cc(F)c5nc(C)n(C(C)C)c5c4)n3)nc2)CC1 (single isomer, unassigned) [Example 41, (R or S)-(1-ethylpiperidin-4-yl)(6-((5-fluoro-4-(4-fluoro-1-isopropyl-2-methyl-1H-benzo [d]imidazol-6-yl)pyrimidin-2-yl)amino)pyridin-3-yl) methanol] | < 0.1 | < 0.1 | 0.1 to 0.5 | < 0.1 | 0.5 to 1 | 0.1 to 0.5
CCN1CCC(C(O)c2ccc(Nc3ncc(F)c(-c4cc(F)c5nc(C)n(C(C)C)c5c4)n3)nc2)CC1 (racemic) [Example 39, (1-Ethylpiperidin-4-yl)(6-((5-fluoro-4-(4-fluoro-1-isopropyl-2-methyl-1H-benzo[d]imidazol-6-yl)pyrimidin-2-yl)amino)pyridin-3-yl)methanol] | < 0.1 | < 0.1 | < 0.1 | < 0.1 | 0.1 to 0.5 | < 0.1
COCCN1CCC(=Cc2ccc(Nc3ncc(F)c(-c4cc(F)c5nc(C)n(C(C)C)c5c4)n3)nc2)CC1 [Example 68] | < 0.1 | < 0.1 | 0.1 to 0.5 | < 0.1 | 1 to 10 | 0.1 to 0.5
Cc1nc2c(F)cc(-c3nc(Nc4ccc(C(C)C5CCNCC5)cn4)ncc3F)cc2n1C(C)C (single isomer, unassigned) [Example 19, (R or S)-5-fluoro-4-(4-fluoro-1-isopropyl-2-methyl-1H-benzo[d]imidazol-6-yl)-N-(5-(1-(piperidin-4-yl)ethyl)pyridin-2-yl) pyrimidin-2-amine] | 0.1 to 0.5 | < 0.1 | 0.1 to 0.5 | 0.1 to 0.5 | 1 to 10 | 0.1 to 0.5
CC(=C1CCNCC1)c1ccc(Nc2ncc(F)c(-c3cc(F)c4nc(C)n(C(C)C)c4c3)n2)nc1 [Example 61] | < 0.1 | 0.5 to 1 | 0.5 to 1 | 0.1 to 0.5 | 1 to 10 | 0.1 to 0.5

More lines, now with the values ahead:

IC50 (CDK4/CycD3) [µM] | IC50 (CDK6/cycD3) [µM] | IC50 (CDK1/CyclinB) [µM] | IC50 (CDK2/CycA2) [µM] | IC50 (CDK7/CyclinH/MAT1) [µM] | IC50 (CDK9/cyclinTl) [µM] | Structure (SMILES)
< 0.1 | < 0.1 | 0.1 to 0.5 | < 0.1 | 1 to 10 | 0.1 to 0.5 | COCCN1CCC([C@@H](C)c2ccc(Nc3ncc(F)c(-c4cc(F)c5nc(C)n(C(C)C)c5c4)n3)nc2)CC1 (single isomer, unassigned) [Example 79]
< 0.1 | < 0.1 | 0.1 to 0.5 | < 0.1 | 1 to 10 | 0.1 to 0.5 | CCN1CCC(C(OC(C)=O)c2ccc(Nc3ncc(F)c(-c4cc(F)c5nc(C)n(C(C)C)c5c4)n3)nc2)CC1 (single isomer, unassigned) [Example 71, (R or S)-(1-ethylpiperidin-4-yl) (6-((5-fluoro-4-(4-fluoro-1-isopropyl-2-methyl-1H-benzo[d]imidazol-6-yl)pyrimidin-2-yl)amino)pyridin-3-yl) methyl acetate]
< 0.1 | < 0.1 | 0.1 to 0.5 | < 0.1 | 1 to 10 | 0.5 to 1 | Cc1nc2c(F)cc(-c3nc(Nc4ccc([C@H](C)C5CCN(C(C)C)CC5)cn4)ncc3F)cc2n1C(C)C (single isomer, unassigned) [Example 73]
